{"source": "patent US7595401B2", "about": "“Therapeutic compounds and their use in cancer” (Myriad Pharmaceuticals, Inc., priority 2006, dated 2009)", "tested_on": "purified human Hsp90", "assay": "Binding Assay: fluorescence polarization with BODIPY-labeled geldanamycin", "settings": "BODIPY-GM 10 nM, Hsp90 30 nM", "procedure,_shortened": "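Fluorescence polarization competition with BODIPY-geldanamycin (10 nM final) and human Hsp90 (30 nM final) in HEPES-KOH pH 7.3 buffer with molybdate, NP-40, DTT; 2% DMSO, overnight at room temperature. Read 485/530 nm; percent inhibition from mP normalized to DMSO controls, fluorescent-compound points excluded.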"}
{"smiles": "CC(C)(C)OC(=O)N1CCC(Cn2cnc(N)c3nc(Sc4cc5c(cc4Br)OCO5)nc2-3)CC1", "note": "[Example 640, tert-Butyl 4-({6-amino-8-[(6-bromo-1,3-benzodioxol-5-yl)thio]-3 H-purin-3-yl}methyl)piperidine-1-carboxylate]", "values": [{"measurement": "% Inhibition at 5 μM Compound Concentration", "value": 19.00, "unit": "%"}]}
{"smiles": "COc1ccc(OC)c(Sc2nc3c(N)ncn(CCc4cc(C)cc(C)c4)c-3n2)c1", "note": "[Example 133, 8-(2,5-dimethoxy-phenylsulfanyl)-3-[2-(3,5-dimethyl-phenyl)-ethyl]-3H-purine-6-ylamine]", "values": [{"measurement": "% Inhibition at 5 μM Compound Concentration", "value": 0, "unit": "%"}]}
{"smiles": "COc1ccc(OC)c(Sc2nc3c(N)ncnc3n2CCc2ccccc2F)c1", "note": "[Example 29, 8-(2,5-Dimethoxy-phenylsulfanyl)-9-[2-(2-fluoro-phenyl)-ethyl]-9H-purin-6-ylamine]", "values": [{"measurement": "IC50", "value": 150, "unit": "nM"}]}
{"smiles": "COc1ccc(OC)c(Sc2nc3c(N)ncn(Cc4ccc(F)cc4)c-3n2)c1", "note": "[Example 83, 8-(2,5-Dimethoxy-phenylsulfanyl)-3-(4-fluoro-benzyl)-3H-purin-6-ylamine]", "values": [{"measurement": "% Inhibition at 5 μM Compound Concentration", "value": 0, "unit": "%"}]}
{"smiles": "CC(=O)N1CCC(CCn2c(Sc3ccc4c(c3)OC(F)(F)O4)nc3c(N)ncnc32)CC1", "note": "[Example 571, 9-[2-(1-Acetylpiperidin-4-yl)ethyl]-8-[(2,2-difluoro-1,3-benzodioxol-5-yl)thio]-9 H-purin-6-amine]", "values": [{"measurement": "IC50", "value": "> 5000", "unit": "nM"}]}
{"smiles": "Nc1ncn(CCn2ccnc2)c2nc(Sc3cc4c(cc3Br)OCO4)nc1-2", "note": "[Example 380, 8-[(6-Bromo-1,3-benzodioxol-5-yl)thio]-3-[2-(1H-imidazol-1-yl)ethyl]-3H-purin-6-amine]", "values": [{"measurement": "% Inhibition at 5 μM Compound Concentration", "value": 4, "unit": "%"}]}
{"smiles": "COc1ccc(OC)c(Sc2nc3c(N)ncnc3n2CCC2=CC3CC(C2)C3(C)C)c1", "note": "(stereo not drawn) [Example 405, 8-[(2,5-Dimethoxyphenyl)thio]-9-[2-(6,6-dimethylbicyclo[3.1.1]hept-2-en-3-yl)ethyl]-9H-purin-6-amine]", "values": [{"measurement": "IC50", "value": "> 8000", "unit": "nM"}]}
{"smiles": "COc1ccc(OC)c(Sc2nc3c(N)ncnc3n2CCc2ccc(OC)c(OC)c2)c1", "note": "[Example 21, 9-[2-(3,4-Dimethoxy-phenyl)-ethyl]-8-(2,5-dimethoxy-phenylsulfanyl)-9H-purin-6-ylamine]", "values": [{"measurement": "IC50", "value": "> 10000", "unit": "nM"}]}
{"smiles": "CCCNC(=N)N1CCC(CCn2cnc(N)c3nc(Sc4cc5c(cc4Br)OCO5)nc2-3)CC1", "note": "[Example 619, 4-(2-{6-Amino-8-[(6-bromo-1,3-benzodioxol-5-yl)thio]-3 H-purin-3-yl}ethyl)-N-propylpiperidine-1-carboximidamide]", "values": [{"measurement": "% Inhibition at 5 μM Compound Concentration", "value": 76.00, "unit": "%"}]}
{"smiles": "CC(C)(C)OC(=O)N1CCOC(CCn2c(Sc3cc4c(cc3Br)OCO4)nc3c(N)ncnc32)C1", "note": "(stereo not drawn) [Example 367, tert-Butyl 2-(2-{6-amino-8-[(6-bromo-1,3-benzodioxol-5-yl)thio]-9H-purin-9-yl}ethyl)morpholine-4-carboxylate]", "values": [{"measurement": "IC50", "value": "> 25000", "unit": "nM"}]}
{"smiles": "COc1ccc(C2(Cn3c(Sc4cc5c(cc4Br)OCO5)nc4c(N)ncnc43)CC2)cc1", "note": "[Example 59, 8-(6-Bromo-benzo[1,3]dioxol-5-ylsulfanyl)-9-[1-(4-methoxy-phenyl)-cyclopropylmethyl]-9H-purin-6-ylamine]", "values": [{"measurement": "IC50", "value": "> 25000", "unit": "nM"}]}
{"smiles": "COC(=O)CCCNC(=O)N1CCC(CCn2c(Sc3cc4c(cc3Br)OCO4)nc3c(N)ncnc32)CC1", "note": "[Example 500, Methyl 4-({[4-(2-{6-amino-8-[(6-bromo-1,3-benzodioxol-5-yl)thio]-9H-purin-9-yl}ethyl)piperidin-1-yl]carbonyl}amino)butanoate]", "values": [{"measurement": "IC50", "value": 60, "unit": "nM"}]}
{"smiles": "COc1ccc(OC)c(Sc2nc3c(N)ncnc3n2CCCc2ccccc2)c1", "note": "[Example 3, 8-(2,5-Dimethoxy-phenylsulfanyl)-9-(3-phenyl-propyl)-9H-purin-6-ylamine]", "values": [{"measurement": "% Inhibition at 5 μM Compound Concentration", "value": 36, "unit": "%"}]}
{"smiles": "COc1ccc(OC)c(Sc2nc3c(N)ncnc3n2C2Cc3ccccc3C2O)c1", "note": "(stereo not drawn) [Example 235, 2-{6-Amino-8-[(2,5-dimethoxyphenyl)thio]-9H-purin-9-yl}indan-1-ol]", "values": [{"measurement": "IC50", "value": "> 8000", "unit": "nM"}]}
{"smiles": "COc1ccc(OC)c(Sc2nc3c(N)ncn(CCc4cccc(F)c4F)c-3n2)c1", "note": "[Example 146, 3-[2-(2,3-difluoro-phenyl)-ethyl]-8-(2,5-dimethoxy-phenylsulfanyl)-3H-purin-6-ylamine]", "values": [{"measurement": "% Inhibition at 5 μM Compound Concentration", "value": 0, "unit": "%"}]}
{"smiles": "COc1ccc(OC)c(Sc2nc3c(N)ncn(CCC4CCNCC4)c-3n2)c1", "note": "[Example 467, 8-[(2,5-Dimethoxyphenyl)thio]-3-(2-piperidin-4-ylethyl)-3 H-purin-6-amine]", "values": [{"measurement": "% Inhibition at 5 μM Compound Concentration", "value": 0, "unit": "%"}]}
{"smiles": "CS(=O)(=O)N1CCCCC1CCn1c(Sc2cc3c(cc2Br)OCO3)nc2c(N)ncnc21", "note": "(stereo not drawn) [Example 372, 8-[(6-Bromo-1,3-benzodioxol-5-yl)thio]-9-{2-[1-(methylsulfonyl)piperidin-2-yl]ethyl}-9H-purin-6-amine]", "values": [{"measurement": "IC50", "value": 100, "unit": "nM"}]}
{"smiles": "CC(C)(C)C(=O)N1CCCC(CCn2cnc(N)c3nc(Sc4cc5c(cc4Br)OCO5)nc2-3)C1", "note": "(stereo not drawn) [Example 450, 8-[(6-Bromo-1,3-benzodioxol-5-yl)thio]-3-{2-[1-(2,2-dimethylpropanoyl)piperidin-3-yl]ethyl}-3H-purin-6-amine]", "values": [{"measurement": "% Inhibition at 5 μM Compound Concentration", "value": 57, "unit": "%"}]}
{"smiles": "COc1ccc(C#N)cc1Sc1nc2c(N)ncn(CCc3ccccc3)c-2n1", "note": "[Example 305, 3-{[6-Amino-3-(2-phenylethyl)-3H-purin-8-yl]thio}-4-methoxybenzonitrile]", "values": [{"measurement": "% Inhibition at 5 μM Compound Concentration", "value": 29.0, "unit": "%"}]}
{"smiles": "CC(C)N1CCC(CCn2c(Sc3cc4c(cc3Br)OCO4)nc3c(N)ncnc32)CC1", "note": "[Example 582, 8-[(6-Bromo-1,3-benzodioxol-5-yl)thio]-9-[2-(1-isopropylpiperidin-4-yl)ethyl]-9 H-purin-6-amine]", "values": [{"measurement": "IC50", "value": 900, "unit": "nM"}]}
{"smiles": "CC(C)(C)OC(=O)N1CC[C@H]1C(=O)N1CCC(CCn2c(Sc3cc4c(cc3Br)OCO4)nc3c(N)ncnc32)CC1", "note": "[Example 728, tert-Butyl(2S)-2-{[4-(2-{6-amino-8-[(6-bromo-1,3-benzodioxol-5-yl)thio]-9H-purin-9-yl}ethyl)piperidin-1-yl]carbonyl}azetidine-1-carboxylate]", "values": [{"measurement": "IC50", "value": 200, "unit": "nM"}]}
{"smiles": "COCc1cc2c(cc1Sc1nc3c(N)ncnc3n1CCC1CCN(C=O)CC1)OCO2", "note": "[Example 624, 4-[2-(6-Amino-8-{[6-(methoxymethyl)-1,3-benzodioxol-5-yl]thio}-9 H-purin-9-yl)ethyl]piperidine-1-carbaldehyde]", "values": [{"measurement": "IC50", "value": 580, "unit": "nM"}]}
{"smiles": "COc1ccc(OC)c(Sc2nc3c(N)ncnc3n2CCC2CCCCN2S(C)(=O)=O)c1", "note": "(stereo not drawn) [Example 371, 8-[(2,5-Dimethoxyphenyl)thio]-9-{2-[1-(methylsulfonyl)piperidin-2-yl]ethyl}-9H-purin-6-amine]", "values": [{"measurement": "IC50", "value": 700, "unit": "nM"}]}
{"smiles": "COc1ccc(OC)c(Sc2nc3c(N)ncn(CCc4ccc(S(=O)(=O)O)cc4)c-3n2)c1", "note": "[Example 176, 4-{2-[6-amino-8-(2,5-dimethoxy-phenylsulfanyl)-purin-3-yl]-ethyl}-benzenesulfonic acid]", "values": [{"measurement": "% Inhibition at 5 μM Compound Concentration", "value": 6, "unit": "%"}]}
{"smiles": "CCOc1cc(CCn2cnc(N)c3nc(Sc4cc(OC)ccc4OC)nc2-3)ccc1OC", "note": "[Example 112, 8-(2,5-dimethoxy-phenylsulfanyl)-3-[2-(3-ethoxy-4-methoxy-phenyl)-ethyl]-3H-purin-6-ylamine]", "values": [{"measurement": "% Inhibition at 5 μM Compound Concentration", "value": 0, "unit": "%"}]}
{"smiles": "CC(=O)N1CCC(CCn2c(Sc3nc(C)c(C)s3)nc3c(N)ncnc32)CC1", "note": "[Example 654, 9-[2-(1-Acetylpiperidin-4-yl)ethyl]-8-[(4,5-dimethyl-1,3-thiazol-2-yl)thio]-9H-purin-6-amine]", "values": [{"measurement": "IC50", "value": 2000, "unit": "nM"}]}
{"smiles": "COc1ccc(F)cc1Sc1nc2c(N)ncnc2n1CCc1ccccc1", "note": "[Example 312, 8-[(5-Fluoro-2-methoxyphenyl)thio]-9-(2-phenylethyl)-9H-purin-6-amine]", "values": [{"measurement": "IC50", "value": "> 25000", "unit": "nM"}]}
{"smiles": "CC(C)(C)OC(=O)N1CCC[C@H](CCn2cnc(N)c3nc(Sc4cc5c(cc4Br)OCO5)nc2-3)C1", "note": "[Example 393, tert-Butyl (3R)-3-(2-{6-amino-8-[(6-bromo-1,3-benzodioxol-5-yl)thio]-3H-purin-3-yl}ethyl)piperidine-1-carboxylate]", "values": [{"measurement": "% Inhibition at 5 μM Compound Concentration", "value": 0, "unit": "%"}]}
{"smiles": "CC(C)(C)C(=O)N1CCCC(CCn2c(Sc3cc4c(cc3Br)OCO4)nc3c(N)ncnc32)C1", "note": "(stereo not drawn) [Example 449, 8-[(6-Bromo-1,3-benzodioxol-5-yl)thio]-9-{2-[1-(2,2-dimethylpropanoyl)piperidin-3-yl]ethyl}-9H-purin-6-amine]", "values": [{"measurement": "IC50", "value": 200, "unit": "nM"}]}
{"smiles": "CC(C)(C)OC(=O)N[C@H]1CC[C@H](CCn2c(Sc3cc4c(cc3Br)OCO4)nc3c(N)ncnc32)CC1", "note": "[Example 455, tert-Butyl [trans-4-(2-{6-amino-8-[(6-bromo-1,3-benzodioxol-5-yl)thio]-9H-purin-9-yl}ethyl)cyclohexyl]carbamate]", "values": [{"measurement": "IC50", "value": 60, "unit": "nM"}]}
{"smiles": "COc1ccc(OC)c(Sc2nc3c(N)ncnc3n2CCc2ccc(Cl)cc2Cl)c1", "note": "[Example 27, 9-[2-(2,4-Dichloro-phenyl)-ethyl]-8-(2,5-dimethoxy-phenylsulfanyl)-9H-purin-6-ylamine]", "values": [{"measurement": "IC50", "value": "> 10000", "unit": "nM"}]}
{"smiles": "CC(C)(C)OC(=O)N1CCCC1CCn1c(Sc2cc3c(cc2Br)OCO3)nc2c(N)ncnc21", "note": "(stereo not drawn) [Example 414, tert-Butyl 2-(2-{6-amino-8-[(6-bromo-1,3-benzodioxol-5-yl)thio]-9H-purin-9-yl}ethyl)pyrrolidine-1-carboxylate]", "values": [{"measurement": "IC50", "value": 540, "unit": "nM"}]}
{"smiles": "Nc1ncnc2c1nc(Sc1cc3c(cc1Br)OCCO3)n2CCC1CCN(C=O)CC1", "note": "[Example 545, 4-(2-{6-Amino-8-[(7-bromo-2,3-dihydro-1,4-benzodioxin-6-yl)thio]-9 H-purin-9-yl}ethyl)piperidine-1-carbaldehyde]", "values": [{"measurement": "IC50", "value": 50, "unit": "nM"}]}
{"smiles": "Nc1ncnc2c1nc(Sc1cc3c(cc1Br)OCO3)n2CCC1CCCCN1CC(=O)O", "note": "(stereo not drawn) [Example 650, [2-(2-{6-amino-8-[(6-bromo-1,3-benzodioxol-5-yl)thio]-9H-purin-9-yl}ethyl)piperidin-1-yl]acetic acid]", "values": [{"measurement": "IC50", "value": "> 2000", "unit": "nM"}]}
{"smiles": "C=Cn1c(S(=O)(=O)c2cc(OC)ccc2OC)nc2c(N)ncnc21", "note": "[Example 486, 8-(2,5-dimethoxy-phenylsulfonyl)-9-vinyl-9H -purin-6-ylamine]", "values": [{"measurement": "IC50", "value": 7000, "unit": "nM"}]}
{"smiles": "COc1ccc(I)c(Sc2nc3c(N)ncn(CCc4ccccc4)c-3n2)c1", "note": "[Example 323, 8-[(2-Iodo-5-methoxyphenyl)thio]-3-(2-phenylethyl)-3H-purin-6-amine]", "values": [{"measurement": "% Inhibition at 5 μM Compound Concentration", "value": 0.0, "unit": "%"}]}
